Legend:
Rho kinase 1 (ROCK1) = Rho kinase 1 (ROCK1) (Homo sapiens, UniProt Q13464); assay: In vitro inhibitory activity assay ROCK1 (ADP-Glo); type: biochemical; settings: ATP 200 μM, Cheng-Prusoff from IC50; read-out: ROCK 1 (Ki, range of activity)
Procedure: (§1) The effectiveness of compounds of the present invention to inhibit Rho kinase activity can be determined in a 10 μl assay containing 40 mM Tris pH7.5, 20 mM MgCl2 0.1 mg/mL BSA, 50 μM DTT and 2.5 μM peptide substrate (Myelin Basic Protein) using an ADP-Glo kit (Promega). Compounds were dissolved in DMSO such that the final concentration of DMSO was 1% in the assay. All reactions/incubations are performed at 25° C. Compound (2 ul) and either Rho kinase 1 or 2 (4 μl) were mixed and incubated for 30 mins. Reactions were initiated by addition of ATP (4μ1) such that the final concentration of ATP in the assay was 200 μM. After a 1 hour incubation 10 μl of ADP-Glo Reagent was added and after a further 1 hour incubation 20 ul of Kinase Detection Buffer was added and the mixture incubated for a further 45 minutes. The luminescent signal was measured on a luminometer. […] Compounds were tested in dose-response format and the inhibition of kinase activity was calculated at each concentration of compound. To determine the IC50 (concentration of compound required to inhibit 50% of the enzyme activity) data were fit to a plot of % inhibition vs Log10 compound concentration using a sigmoidal fit with a variable slope and fixing the maximum to 100% and the minimum to 0%. To determine the Ki values the Cheng-Prusoff equation was utilized (Ki=IC50/(1+[S]/Km).

Rho kinase 2 (ROCK2) = Rho kinase 2 (ROCK2) (Homo sapiens, UniProt O75116); assay: In vitro inhibitory activity assay ROCK2 (ADP-Glo); type: biochemical; settings: ATP 200 μM, Cheng-Prusoff from IC50; read-out: ROCK2 (Ki, range of activity)
Rho kinase 2 (ROCK2), sequence (O75116 whole entry): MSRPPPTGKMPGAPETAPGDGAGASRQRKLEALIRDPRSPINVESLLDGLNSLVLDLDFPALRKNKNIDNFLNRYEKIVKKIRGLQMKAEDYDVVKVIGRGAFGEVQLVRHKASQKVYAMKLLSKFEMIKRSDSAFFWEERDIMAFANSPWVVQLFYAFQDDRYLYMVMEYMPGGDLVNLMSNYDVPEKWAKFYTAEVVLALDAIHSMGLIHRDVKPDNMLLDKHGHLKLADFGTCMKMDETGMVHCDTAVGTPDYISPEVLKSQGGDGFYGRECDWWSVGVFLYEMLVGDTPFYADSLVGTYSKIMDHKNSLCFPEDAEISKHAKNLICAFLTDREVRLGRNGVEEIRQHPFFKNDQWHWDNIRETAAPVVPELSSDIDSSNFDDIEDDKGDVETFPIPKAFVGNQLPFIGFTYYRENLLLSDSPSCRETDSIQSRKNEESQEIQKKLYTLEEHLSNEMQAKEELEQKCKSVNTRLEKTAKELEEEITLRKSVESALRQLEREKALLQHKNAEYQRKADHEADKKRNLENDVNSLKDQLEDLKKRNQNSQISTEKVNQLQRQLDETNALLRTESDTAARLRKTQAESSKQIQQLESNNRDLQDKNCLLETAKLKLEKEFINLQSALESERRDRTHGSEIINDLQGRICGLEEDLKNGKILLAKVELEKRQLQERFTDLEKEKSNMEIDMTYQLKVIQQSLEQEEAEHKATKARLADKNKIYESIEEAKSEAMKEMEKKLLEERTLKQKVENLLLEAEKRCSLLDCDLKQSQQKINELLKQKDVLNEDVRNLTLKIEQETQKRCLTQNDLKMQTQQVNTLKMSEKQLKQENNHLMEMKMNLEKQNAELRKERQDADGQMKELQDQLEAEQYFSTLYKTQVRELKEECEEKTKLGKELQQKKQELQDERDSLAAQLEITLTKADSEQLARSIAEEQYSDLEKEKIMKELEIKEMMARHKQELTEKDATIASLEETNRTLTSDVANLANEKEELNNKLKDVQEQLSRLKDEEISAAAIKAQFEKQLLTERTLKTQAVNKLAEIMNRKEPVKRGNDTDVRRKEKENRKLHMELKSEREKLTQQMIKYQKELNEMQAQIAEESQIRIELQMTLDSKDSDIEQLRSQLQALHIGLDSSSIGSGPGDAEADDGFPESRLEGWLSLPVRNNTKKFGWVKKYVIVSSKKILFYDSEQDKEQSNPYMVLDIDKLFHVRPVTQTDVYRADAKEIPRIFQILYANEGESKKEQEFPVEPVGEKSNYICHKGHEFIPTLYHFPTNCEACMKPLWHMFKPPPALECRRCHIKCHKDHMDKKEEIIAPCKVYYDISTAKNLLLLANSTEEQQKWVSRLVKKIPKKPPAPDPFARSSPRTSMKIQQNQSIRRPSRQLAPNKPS
Procedure: as §1

PKA = PKA (Homo sapiens, UniProt P17612); assay: In vitro inhibitory activity assay for PKA (ADP-Glo), reported as selectivity ratio vs ROCK2; type: biochemical; settings: Ki value for PKA divided by Ki value of ROCK2
Procedure: The effectiveness of compounds of the present invention to inhibit PKA activity can be determined in a 10 μl assay containing 40 mM Tris pH7.5, 20 mM MgCl2 0.1 mg/ml BSA, 50 μM DTT and 260 μM peptide substrate (kemptide) using an ADP-Glo kit (Promega). Compounds were dissolved in DMSO such that the final concentration of DMSO was 1% in the assay. All reactions/incubations are performed at 25° C. Compound and PKA enzyme (6 μl) were mixed and incubated for 30 mins. Reactions were initiated by addition of ATP (4 μl ) such that the final concentration of ATP in the assay was 10 μM. After a 30 minute incubation 10 μl of ADP-Glo Reagent was added and after a further 1 hour incubation 20 μl of Kinase Detection Buffer was added and the mixture incubated for a further 45 minutes. The luminescent signal was measured on a luminometer. […] Compounds were tested in dose-response format and the inhibition of kinase activity was calculated at each concentration of compound. To determine the IC50 (concentration of compound required to inhibit 50% of the enzyme activity) data were fit to a plot of % inhibition vs Logio compound concentration using a sigmoidal fit with a variable slope and fixing the maximum to 100% and the minimum to 0%. To determine the Ki values the Cheng-Prusoff equation was utilized (Ki=IC50/(1+[S]/Km).
In vitro inhibitory activities for PKA were reported as selectivity ratio vs. ROCK-2.

[1] = test system: cch-evoked bronchoconstriction; assay: Experimental bronchospasm (carbachol-induced bronchoconstriction, Konzett & Roessler); type: in vivo, Male CD Sprague Dawley rats; settings: for inhibition in vivo at 0.01 mg/kg: dose 10 μg/Kg intratracheal
Procedure: Male CD Sprague Dawley rats (220-250 g) were purchased from Charles River Laboratories Italy (Calco, Lecco). Prior to use animals were acclimated for at least 5 days 20 to the local vivarium conditions (room temperature: 20-24° C.; relative humidity: 40-70%), having free access to standard rat chow and softened tap water. All the procedures were performed in animal operating rooms according to ethical guidelines for the conduct of animal research (D. L.vo 116/92).
Rats were anaesthetized with a combination of anesthetics (Zoletil 20 mg/kg+Xylazine 5 mg/kg, ip) for the i.t. administration. A laryngoscope was moved forward into the mouth to visualize the trachea and guide the insertion of the tip of a custom-made small diameter cannula directly into the trachea and located 1-2 mm above the bifurcation.
In order to assess the residual inhibitory activity of test compounds 1 hour after their administration, rats were surgically prepared. Body temperature was kept constant at 37° C. by a heated blanket.
The trachea was cannulated and the lungs were ventilated artificially with a constant volume ventilator (rodent ventilator mod. 7025, Ugo Basile, Comerio, Varese, Italy) at a frequency of 80 strokes/min and at a tidal volume of 10 ml/kg. To avoid spontaneous breathing, the animals were injected intravenously (i.v.) with pancuronium bromide (2 mg/kg).
Bronchoconstriction was induced by the i.v. injection of carbachol (cch) 80 μg/kg. In control experiments, repeated injections of this dose produced reproducible short-lasting (1-2 min duration) bronchospasms. Bronchoconstriction, quantified as a reduction of tidal volume, was evaluated according to the method described by Konzett & Roessler (1). Systemic blood pressure and changes in airway resistance were monitored with a digital pressure transducer.
After stabilisation of artificial breathing and blood pressure, animals were injected (i.v.) with cch every 3 min, until 3 stable and reproducible basal responses were obtained. […] The effect of test compounds was 15 expressed as % inhibition of cch-evoked bronchoconstriction in time-matched, vehicle-treated, animals (controls).
Tested compounds were dissolved in dH2O and 1% Tween-80 or 0,001% HCl and further diluted to target concentrations. Tested compounds were instilled locally into the trachea in a volume of 125 μl.
All data are presented as mean±s.e.mean. The % inhibition of experimental bronchospasm was calculated comparing the drug-treated with the vehicle-treated control animals. Data analysis was performed using GraphPad Prism software.

[2] = iv, rat, 1 hour after administration, carbachol 80 μg/kg i.v., read-out: Inhibition % (±s.e. mean) of cch-evoked bronchoconstriction

Rho kinase 1 (ROCK1), sequence (Q13464 whole entry): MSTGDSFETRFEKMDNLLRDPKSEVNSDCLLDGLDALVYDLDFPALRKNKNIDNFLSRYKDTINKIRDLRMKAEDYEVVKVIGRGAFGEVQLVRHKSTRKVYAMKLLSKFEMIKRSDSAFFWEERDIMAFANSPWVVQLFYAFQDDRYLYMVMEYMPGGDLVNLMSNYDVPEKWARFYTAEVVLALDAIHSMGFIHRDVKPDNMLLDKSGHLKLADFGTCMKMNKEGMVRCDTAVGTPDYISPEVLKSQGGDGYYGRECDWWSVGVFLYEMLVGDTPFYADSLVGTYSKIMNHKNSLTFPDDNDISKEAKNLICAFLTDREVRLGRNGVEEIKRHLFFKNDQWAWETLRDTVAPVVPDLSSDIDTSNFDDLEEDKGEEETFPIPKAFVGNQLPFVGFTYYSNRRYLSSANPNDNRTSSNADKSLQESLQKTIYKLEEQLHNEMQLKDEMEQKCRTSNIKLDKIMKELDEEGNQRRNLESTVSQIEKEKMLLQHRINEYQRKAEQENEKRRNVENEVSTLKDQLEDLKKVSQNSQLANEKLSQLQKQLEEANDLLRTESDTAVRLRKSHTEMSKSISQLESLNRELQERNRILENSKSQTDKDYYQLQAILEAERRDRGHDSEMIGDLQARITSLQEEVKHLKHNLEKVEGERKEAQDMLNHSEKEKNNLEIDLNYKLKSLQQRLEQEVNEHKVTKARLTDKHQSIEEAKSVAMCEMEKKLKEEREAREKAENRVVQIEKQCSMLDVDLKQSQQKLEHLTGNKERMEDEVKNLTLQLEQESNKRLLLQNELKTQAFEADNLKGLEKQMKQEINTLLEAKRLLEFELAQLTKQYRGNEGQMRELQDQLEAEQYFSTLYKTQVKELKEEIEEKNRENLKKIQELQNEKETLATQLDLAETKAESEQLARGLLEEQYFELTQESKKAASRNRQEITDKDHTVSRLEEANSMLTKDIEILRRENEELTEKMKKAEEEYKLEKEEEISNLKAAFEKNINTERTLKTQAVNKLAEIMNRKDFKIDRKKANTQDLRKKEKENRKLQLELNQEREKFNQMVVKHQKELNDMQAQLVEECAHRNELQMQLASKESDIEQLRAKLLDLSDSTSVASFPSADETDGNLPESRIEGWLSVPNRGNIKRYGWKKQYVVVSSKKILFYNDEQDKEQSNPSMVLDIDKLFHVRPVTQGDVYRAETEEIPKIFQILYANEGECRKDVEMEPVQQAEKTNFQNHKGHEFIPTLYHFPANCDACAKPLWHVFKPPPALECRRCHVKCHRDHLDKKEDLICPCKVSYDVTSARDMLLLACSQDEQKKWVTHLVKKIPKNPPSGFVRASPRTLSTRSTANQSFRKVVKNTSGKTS

| SMILES | Ki (Rho kinase 1 (ROCK1)) | Ki (Rho kinase 2 (ROCK2)) | Ratio (PKA/ROCK2) (PKA) | inhibition in vivo at 0.01 mg/kg [1, 2] | inhibition in vivo at 0.003 mg/kg ([1]; iv, rat, dose 3 μg/Kg intratracheal, 1 hour after administration, carbachol 80 μg/kg i.v., read-out: Inhibition % (±s.e. mean) of cch-evoked bronchoconstriction) | activity as bronchodilator (in words) ([1]; rat bronchospasm test, internal comparator vs compounds with bulky moiety W) |
| --- | --- | --- | --- | --- | --- | --- |
| CN1CCN(C)C(COc2ccc(NC(=O)c3cccc(CNc4ncc(-c5ccnc(N)n5)c5c4CCO5)c3)nc2)C1 (single isomer, unassigned) [Example 82, 3-(((7-(2-aminopyrimidin-4-yl)-2,3-dihydrofuro[3,2-c]pyridin-4-yl)amino)methyl)-N-(5-((1,4-dimethylpiperazin-2-yl)methoxy)pyridin-2-yl)benzamide] | ≤ 3 nM | ≤ 3 nM | *** (ratio≥10) | 69.7 ± 3.4% | – | – |
| CN1CCN(C)C(COc2ccc(NC(=O)c3cccc(CNc4ncc(-c5ccnc(N)n5)c5c4CCO5)c3)nc2)C1 (single isomer, unassigned) [Example 83, 3-(((7-(2-aminopyrimidin-4-yl)-2,3-dihydrofuro[3,2-c]pyridin-4-yl)amino)methyl)-N-(5-((1,4-dimethylpiperazin-2-yl)methoxy)pyridin-2-yl)benzamide] | ≤ 3 nM | ≤ 3 nM | *** (ratio≥10) | – | 53.3 ± 4.6% | – |
| COc1ccc(NC(=O)c2cccc(CNc3ncc(-c4ccnc(N)n4)c4c3CCO4)c2)nc1 [Example 51, 3-(((7-(2-Aminopyrimidin-4-yl)-2,3-dihydrofuro[3,2-c]pyridin-4-yl)amino)methyl)-N-(5-methoxypyridin-2-yl)benzamide] | ≤ 3 nM | ≤ 3 nM | *** (ratio≥10) | 3.1 ± 14.8% | – | markedly lower activity as bronchodilator |
| CN(C)CCOc1ccc(NC(=O)c2cccc(CNc3ncc(-c4ccnc(N)n4)c4c3CCO4)c2)nc1 [Example 52, 3-(((7-(2-aminopyrimidin-4-yl)-2,3-dihydrofuro[3,2-c]pyridin-4-yl)amino)methyl)-N-(5-(2-(dimethylamino)ethoxy)pyridin-2-yl)benzamide] | ≤ 3 nM | ≤ 3 nM | *** (ratio≥10) | 51.5 ± 6.2% | – | – |
| CN1CCC(C(=O)N2CCN(c3ccc(NC(=O)c4cccc(CNc5ncc(-c6ccnc(N)n6)c6c5CCO6)c4)nc3)CC2)CC1 [Example 65, 3-(((7-(2-aminopyrimidin-4-yl)-2,3-dihydrofuro[3,2-c]pyridin-4-yl)amino)methyl)-N-(5-(4-(1-methylpiperidine-4-carbonyl)piperazin-1-yl)pyridin-2-yl)benzamide] | ≤ 3 nM | ≤ 3 nM | *** (ratio≥10) | – | – | – |
| C[C@@H]1CN[C@@H](C)CN1c1ccc(NC(=O)c2cccc(CNc3ncc(-c4ccnc(N)n4)c4c3CCO4)c2)nc1 [Example 67] | ≤ 3 nM | ≤ 3 nM | *** (ratio≥10) | – | – | – |
| Nc1nccc(-c2cnc(NCc3cccc(C(=O)Nc4ccc(N5C[C@H]6C[C@@H]5CN6)cn4)c3)c3c2OCC3)n1 [Example 68, N-(5-((1R,4R)-2,5-diazabicyclo[2.2.1]heptan-2-yl)pyridin-2-yl)-3-(((7-(2-aminopyrimidin-4-yl)-2,3-dihydrofuro[3,2-c]pyridin-4-yl)amino)methyl)benzamide] | ≤ 3 nM | ≤ 3 nM | *** (ratio≥10) | – | – | – |
| Nc1nccc(-c2cnc(NCc3cccc(C(=O)Nc4ccc(N5CCCNCC5)cn4)c3)c3c2OCC3)n1 [Example 72, N-(5-(1,4-diazepan-1-yl)pyridin-2-yl)-3-(((7-(2-aminopyrimidin-4-yl)-2,3-dihydrofuro[3,2-c]pyridin-4-yl)amino)methyl)benzamide] | ≤ 3 nM | ≤ 3 nM | *** (ratio≥10) | – | – | – |
| CN(C)CCN(C)c1ccc(NC(=O)c2cccc(CNc3ncc(-c4ccnc(N)n4)c4c3CCO4)c2)nc1 [Example 75, 3-(((7-(2-aminopyrimidin-4-yl)-2,3-dihydrofuro[3,2-c]pyridin-4-yl)amino)methyl)-N-(5-((2-(dimethylamino)ethyl)(methyl)amino)pyridin-2-yl)benzamide] | ≤ 3 nM | ≤ 3 nM | *** (ratio≥10) | – | – | – |
| CN1C[C@@H]2C[C@H]1CN2c1ccc(NC(=O)c2cccc(CNc3ncc(-c4ccnc(N)n4)c4c3CCO4)c2)nc1 [Example 76, 3-(((7-(2-aminopyrimidin-4-yl)-2,3-dihydrofuro[3,2-c]pyridin-4-yl)amino)methyl)-N-(5-((1S,4S)-5-methyl-2,5-diazabicyclo[2.2.1]heptan-2-yl)pyridin-2-yl)benzamide] | ≤ 3 nM | ≤ 3 nM | ** (5≤ratio<10) | – | – | – |
| CN1CC[C@@H]1COc1ccc(NC(=O)c2cccc(CNc3ncc(-c4ccnc(N)n4)c4c3CCO4)c2)nc1 [Example 81, (R)-3-(((7-(2-aminopyrimidin-4-yl)-2,3-dihydrofuro[3,2-c]pyridin-4-yl)amino)methyl)-N-(5-((1-methylazetidin-2-yl)methoxy)pyridin-2-yl)benzamide] | ≤ 3 nM | ≤ 3 nM | – | 81.3 ± 7.9% | – | – |
| CNC(=O)c1cccc(CNc2ncc(-c3ccncn3)c3c2CCO3)c1 [Example A, N-Methyl-3-(((7-(pyrimidin-4-yl)-2,3-dihydrofuro[3,2-c]pyridin-4-yl)amino)methyl)benzamide, reference compound] | > 30 nM | > 30 nM | ** (5≤ratio<10) | – | – | – |
| CNC(=O)c1cccc(CNc2ncc(-c3ccnc(N)n3)c3c2OCC3)c1 [Example B, 3-(((4-(2-aminopyrimidin-4-yl)-2,3-dihydrofuro[2,3-c]pyridin-7-yl)amino)methyl)-N-methylbenzamide, reference compound] | > 30 nM | > 30 nM | *** (ratio≥10) | – | – | – |
| Nc1nccc(-c2cnc(NCc3ccccc3)c3c2OCC3)n1 [Example C, 7-(2-Aminopyrimidin-4-yl)-N-benzyl-2,3-dihydrofuro[3,2-c]pyridin-4-amine, reference compound] | > 30 nM | 3 to 30 nM | * (ratio<5) | – | – | – |
